Structures are written as SMILES.

human 11β-HSD1 microsome fraction, sequence (P28845 whole entry): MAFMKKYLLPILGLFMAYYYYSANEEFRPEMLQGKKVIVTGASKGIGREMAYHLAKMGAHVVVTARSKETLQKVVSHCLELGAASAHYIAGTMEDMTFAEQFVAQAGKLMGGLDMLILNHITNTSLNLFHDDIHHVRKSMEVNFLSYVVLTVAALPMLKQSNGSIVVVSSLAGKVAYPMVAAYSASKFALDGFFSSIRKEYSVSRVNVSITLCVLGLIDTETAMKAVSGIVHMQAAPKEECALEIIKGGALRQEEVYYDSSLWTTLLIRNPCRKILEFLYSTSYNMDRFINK

The target in the assay is human 11β-HSD1 microsome fraction (Homo sapiens, UniProt P28845). In words: Enzymatic 11Beta-HSD1 test (SPA-based detection). It is filed as biochemical. The note with it: [1,2-3H]-cortisone, NADPH, 37° C. for 1 hour. The method, then:
Enzymatic 11Beta-HSD1 Test:
To measure the activity of the compounds, an SPA-based detection method (Solly et al. 2005) was employed. First of all, 20 μl of the human 11β-HSD1 microsome fraction (0.2 μg of protein), prepared in 50 mM HEPES, 0.1% BSA (w/v), were applied to a plate with 384 wells. The test compounds (0.09 μl) were applied to the assay plate in 100% DMSO. The reaction was started by addition of 20 μl of [1,2-^3H]-cortisone (0.1 μCi/[…]) in assay buffer comprising 25 mM HEPES, 100 mM KCl, 5 mM NaCl, 2 mM MgCl2 and 0.25 mM NADPH. The plate was agitated at 37° C. for 1 hour. At the same time, a stop solution comprising 20 mg/ml SPA-PVT beads, 1.6 mg/ml monoclonal cortisol antibody and 0.01 mM SSR110887 (inhibitor from the Biovitrium patent) in 50 mM HEPES, 1 M NaCl and 1 M KCl was stirred at room temperature. To stop the reaction, 25 μl of the stop solution were added to each well. The plate was agitated gently at room temperature for 1 further hour and then centrifuged at 500 gav for 1 min, in order that the SPA beads could settle out. The plate was then read in a Wallac-1450-Microbeta unit with a standard SPA program (counting time 1 min/well). The comparative compound was glycyrrhetinic acid.
Protein and radioactive substrate were dispensed with a Biomek FX unit (Beckman Coulter) for handling liquids. The test compounds were added with a Cybi-Well equipped with a 90 nl pin tool (CyBio).
Lit.: Solly S, Mundt S S, Zokian H J, Juy-Fang Ding G, Hermanowski-Vosatka A, Strulovici B and Zheng W. High-throughput screening of 11β-Hydroxysteroid dehydrogenase type 1 in scintillation proximity format. Assay Drug Dev Technol 2005; 3:377-384.
One may read the IC50 as the midpoint of a concentration-inhibition curve. A high value points to weaker potency. `CC1(C)OC(N[C@@H](CCO)c2ccccc2F)=NS(=O)(=O)[C@@H]1Cc1ccc(C2CCNCC2)cc1` [Example 34, (S)-3-[(R)-6,6-Dimethyl-4,4-dioxo-5-(4-piperidin-4-yl-benzyl)-5,6-dihydro-4H-4lambda6-[1,4,3]oxathiazin-2-ylamino]-3-(2-fluorophenyl)-propan-1-ol] showed an IC50 of 8 nM. With `Cc1ccc(F)cc1[C@H](CCO)NC1=NS(=O)(=O)C(Cc2ccccc2)C(C)(C)O1` (stereo partly drawn) [Example 19, (S)-3-(5-Benzyl-6,6-dimethyl-4,4-dioxo-5,6-dihydro-4H-4lambda6-[1,4,3]oxathiazin-2-ylamino)-3-(5-fluoro-2-methyl-phenyl)-propan-1-ol] the figure was 4 nM; with `CC1(C)OC(N[C@@H](CCO)c2ccccc2F)=NS(=O)(=O)C1Cc1ccc(-c2ccccc2)cc1` (stereo partly drawn) [Example 10, (S)-3-(5-Biphenyl-4-ylmethyl-6,6-dimethyl-4,4-dioxo-5,6-dihydro-4H-4lambda6-[1,4,3]oxathiazin-2-ylamino)-3-(2-fluoro-phenyl)-propan-1-ol], 4 nM. Regarding `C[C@H](NC1=NS(=O)(=O)C(Cc2ccc(N3CCN(C(C)(C)C)CC3)cc2)C(C)(C)O1)c1ccccc1F` (stereo partly drawn) [Example 39, {5-[4-(4-tert-Butyl-piperazin-1-yl)-benzyl]-6,6-dimethyl-4,4-dioxo-5,6-dihydro-4H-4lambda6-[1,4,3]oxathiazin-2-yl}-[(S)-1-(2-fluorophenyl)-ethyl]-amine], half-maximal inhibition (IC50) required 17 nM. As for `CC1(C)OC(N[C@@H](CCO)c2ccccc2)=NS(=O)(=O)C1Cc1ccccc1` (stereo partly drawn) [Example 2, (S)-3-(5-Benzyl-6,6-dimethyl-4,4-dioxo-5,6-dihydro-4H-4lambda6-[1,4,3]oxathiazin-2-ylamino)-3-phenyl-propan-1-ol], the figure is 7 nM; as for `CN(C)CCCc1ccc(CC2C(C)(C)OC(N[C@@H](CCO)c3ccccc3F)=NS2(=O)=O)cc1` (stereo partly drawn) [Example 32, (S)-3-{5-[4-(3-Dimethylamino-propyl)-benzyl]-6,6-dimethyl-4,4-dioxo-5,6-dihydro-4H-4lambda6-[1,4,3]oxathiazin-2-ylamino}-3-(2-fluorophenyl)-propan-1-ol], 32 nM. As for `CC1(C)OC(N[C@@H](CCO)c2cccc(Cl)c2)=NS(=O)(=O)C1Cc1ccccc1` (stereo partly drawn) [Example 16, (S)-3-(5-Benzyl-6,6-dimethyl-4,4-dioxo-5,6-dihydro-4H-4lambda6-[1,4,3]oxathiazin-2-ylamino)-3-(3-chlorophenyl)-propan-1-ol], the figure is 6 nM.

For `C[C@H](NC1=NS(=O)(=O)C(C)(Cc2ccccc2)C(C)(C)O1)c1ccccc1F` (stereo partly drawn) [Example 5, (5-Benzyl-5,6,6-trimethyl-4,4-dioxo-5,6-dihydro-4H-4lambda6-[1,4,3]oxathiazin-2-yl)-[(S)-1-(2-fluorophenyl)-ethyl]-amine], the IC50 is 5 nM. On to `CC1(C)OC(N[C@@H](CCO)c2ccc(Cl)cc2)=NS(=O)(=O)C1Cc1ccccc1` (stereo partly drawn) [Example 15, (S)-3-(5-Benzyl-6,6-dimethyl-4,4-dioxo-5,6-dihydro-4H-4lambda6-[1,4,3]oxathiazin-2-ylamino)-3-(4-chlorophenyl)-propan-1-ol], for which the 50% inhibitory concentration (IC50) was determined as 10 nM. With `C[C@H](NC1=NS(=O)(=O)[C@H](Cc2ccc(N3CCNCC3)cc2)C(C)(C)O1)c1ccccc1F` [Example 45, [(R)-6,6-Dimethyl-4,4-dioxo-5-(4-piperazin-1-yl-benzyl)-5,6-dihydro-4H-4lambda6-[1,4,3]oxathiazin-2-yl]-[(S)-1-(2-fluorophenyl)-ethyl]-amine] the figure was 44 nM. With `CC1(C)OC(N[C@@H](CCO)c2ccccc2F)=NS(=O)(=O)C1(C)Cc1ccc(Br)cc1` (stereo partly drawn) [Example 4, (S)-3-[5-(4-Bromobenzyl)-5,6,6-trimethyl-4,4-dioxo-5,6-dihydro-4H-4lambda6-[1,4,3]oxathiazin-2-ylamino]-3-(2-fluorophenyl)-propan-1-ol] the figure was 3 nM.

Molecule `CC1(C)OC(N[C@@H](CCO)c2cc(F)ccc2F)=NS(=O)(=O)C1Cc1ccccc1` (stereo partly drawn) [Example 17, (S)-3-(5-Benzyl-6,6-dimethyl-4,4-dioxo-5,6-dihydro-4H-4lambda6-[1,4,3]oxathiazin-2-ylamino)-3-(2,5-difluorophenyl)-propan-1-ol] gave a half-inhibitory concentration (IC50) of 4 nM. With `CC1(C)OC(N[C@@H](CCO)c2ccccc2F)=NS(=O)(=O)C1(C)Cc1ccc(-c2ccc(C(F)(F)F)cn2)cc1` (stereo partly drawn) [Example 7, (S)-3-(2-Fluorophenyl)-3-{5,6,6-trimethyl-4,4-dioxo-5-[4-(5-trifluoromethyl-pyridin-2-yl)-benzyl]-5,6-dihydro-4H-4lambda6-[1,4,3]oxathiazin-2-ylamino}-propan-1-ol] the figure was 12 nM.

With `C[C@H](NC1=NS(=O)(=O)[C@@H](Cc2ccc(C3CCN(C)CC3)cc2)C(C)(C)O1)c1ccccc1F` [Example 51], half-maximal inhibition (IC50) required 6 nM. As for `CC1(C)OC(N[C@@H](CCO)c2ccccc2F)=NS(=O)(=O)C1Cc1ccc(C2CCN(CCCO)CC2)cc1` (some centres unmarked) [Example 26], the figure is 16 nM; as for `CC1(C)OC(N[C@@H](CCO)c2ccccc2F)=NS(=O)(=O)C1Cc1ccc(C2CCNCC2)cc1` (stereo partly drawn) [Example 22, (S)-3-[6,6-Dimethyl-4,4-dioxo-5-(4-piperidin-4-yl-benzyl)-5,6-dihydro-4H-4lambda6-[1,4,3]oxathiazin-2-ylamino]-3-(2-fluorophenyl)-propan-1-ol], 7 nM.

In turn, `CC1(C)OC(N[C@@H](CCO)c2ccccc2F)=NS(=O)(=O)C1Cc1ccc(C2CCN(CCO)CC2)cc1` (some centres unmarked) [Example 27] returned an IC50 of 5 nM. As to `COC(=O)N1CCC(c2ccc(CC3C(C)(C)OC(N[C@@H](C)c4ccccc4F)=NS3(=O)=O)cn2)CC1` (stereo partly drawn) [Example 44, 5-{2-[(S)-1-(2-fluorophenyl)-ethylamino]-6,6-dimethyl-4,4-dioxo-5,6-dihydro-4H-4lambda6-[1,4,3]oxathiazin-5-ylmethyl}-3′,4′,5′,6′-tetrahydro-2′H-[2,4′]bipyridinyl-1′-carboxylic acid methyl ester], the midpoint of inhibition, the IC50, lay at 5 nM. As for `CC1(C)OC(N[C@@H](CCO)c2ccccc2F)=NS(=O)(=O)C1Cc1ccc(C2=CCNCC2)cc1` (stereo partly drawn) [Example 23, (S)-3-{6,6-Dimethyl-4,4-dioxo-5-[4-(1,2,3,6-tetrahydro-pyridin-4-yl)-benzyl]-5,6-dihydro-4H-4lambda6-[1,4,3]oxathiazin-2-ylamino}-3-(2-fluoro-phenyl)-propan-1-ol], the figure is 17 nM; as for `C[C@H](NC1=NS(=O)(=O)[C@@H](Cc2ccc(C3CCN(C4COC4)CC3)cc2)C(C)(C)O1)c1ccccc1F` [Example 53, {(S)-6,6-Dimethyl-5-[4-(1-oxetan-3-yl-piperidin-4-yl)-benzyl]-4,4-dioxo-5,6-dihydro-4H-4lambda6-[1,4,3]oxathiazin-2-yl}-[(S)-1-(2-fluorophenyl)-ethyl]-amine], 9 nM; as for `C[C@H](NC1=NS(=O)(=O)[C@H](Cc2ccc(C3CCN(C)CC3)cc2)C(C)(C)O1)c1ccccc1F` [Example 50], 52 nM. With `CC1(C)OC(N[C@@H](CCO)c2ccccc2F)=NS(=O)(=O)C1Cc1cccc2ccccc12` (stereo partly drawn) [Example 21, (S)-3-(6,6-Dimethyl-5-naphthalen-1-ylmethyl-4,4-dioxo-5,6-dihydro-4H-4lambda6-[1,4,3]oxathiazin-2-ylamino)-3-(2-fluorophenyl)-propan-1-ol] the figure was 5 nM; with `CC1(C)OC(N[C@@H](CCO)c2ccccc2F)=NS(=O)(=O)C1Cc1ccc(CCCN2CCOCC2)cc1` (some centres unmarked) [Example 31], 17 nM; with `CC1(C)OC(N[C@@H](CCO)c2ccccc2F)=NS(=O)(=O)[C@@H]1Cc1ccc(C2CCN(C3CC3)CC2)cc1` [Example 41, (S)-3-{(R)-5-[4-(1-Cyclopropyl-piperidin-4-yl)-benzyl]-6,6-dimethyl-4,4-dioxo-5,6-dihydro-4H-4lambda6-[1,4,3]oxathiazin-2-ylamino}-3-(2-fluoro-phenyl)-propan-1-ol], 32 nM.

For `C[C@H](NC1=NS(=O)(=O)C(Cc2ccc(C3CCNCC3)cc2)C(C)(C)O1)c1ccccc1F` (stereo partly drawn) [Example 38, [6,6-Dimethyl-4,4-dioxo-5-(4-piperidin-4-yl-benzyl)-5,6-dihydro-4H-4lambda6-[1,4,3]oxathiazin-2-yl]-[(S)-1-(2-fluorophenyl)-ethyl]-amine], the half-maximal inhibitory concentration (IC50) was found to be 7 nM.

Take `CC1(C)OC(N[C@@H](CCO)c2ccccc2F)=NS(=O)(=O)C1Cc1ccc(C2CCN(CC3CC3)CC2)cc1` (stereo partly drawn) [Example 30, (S)-3-{5-[4-(1-Cyclopropylmethyl-piperidin-4-yl)-benzyl]-6,6-dimethyl-4,4-dioxo-5,6-dihydro-4H-4lambda6-[1,4,3]oxathiazin-2-ylamino}-3-(2-fluoro-phenyl)-propan-1-ol]: the IC50 was 29 nM.

Source of the values: patent publication US8846666B2, “Oxathiazine derivatives which are substituted with benzyl or heteromethylene groups, method for producing them, their use as medicine and drug containing said derivatives and the use thereof” (Sanofi, priority 2011, dated 2014).
